Test results from paper PMC11040934, “PI3Kγδ inhibition suppresses key disease features in a rat model of asthma” (Respiratory Research, 2024).
Like-named read-outs stand apart in the source and are kept apart here.

Assays:
rat PI3Kδ = target: T1, rat PI3Kδ (Rattus norvegicus, UniProt A0A8I5Y949); test: PI3K δ assay: anti-IgM-stimulated CD86 expression on rat splenic B cells (FACS); format: cell-based; settings: mean ± SEM, n = 3
T1 sequence (A0A8I5Y949 1-1047): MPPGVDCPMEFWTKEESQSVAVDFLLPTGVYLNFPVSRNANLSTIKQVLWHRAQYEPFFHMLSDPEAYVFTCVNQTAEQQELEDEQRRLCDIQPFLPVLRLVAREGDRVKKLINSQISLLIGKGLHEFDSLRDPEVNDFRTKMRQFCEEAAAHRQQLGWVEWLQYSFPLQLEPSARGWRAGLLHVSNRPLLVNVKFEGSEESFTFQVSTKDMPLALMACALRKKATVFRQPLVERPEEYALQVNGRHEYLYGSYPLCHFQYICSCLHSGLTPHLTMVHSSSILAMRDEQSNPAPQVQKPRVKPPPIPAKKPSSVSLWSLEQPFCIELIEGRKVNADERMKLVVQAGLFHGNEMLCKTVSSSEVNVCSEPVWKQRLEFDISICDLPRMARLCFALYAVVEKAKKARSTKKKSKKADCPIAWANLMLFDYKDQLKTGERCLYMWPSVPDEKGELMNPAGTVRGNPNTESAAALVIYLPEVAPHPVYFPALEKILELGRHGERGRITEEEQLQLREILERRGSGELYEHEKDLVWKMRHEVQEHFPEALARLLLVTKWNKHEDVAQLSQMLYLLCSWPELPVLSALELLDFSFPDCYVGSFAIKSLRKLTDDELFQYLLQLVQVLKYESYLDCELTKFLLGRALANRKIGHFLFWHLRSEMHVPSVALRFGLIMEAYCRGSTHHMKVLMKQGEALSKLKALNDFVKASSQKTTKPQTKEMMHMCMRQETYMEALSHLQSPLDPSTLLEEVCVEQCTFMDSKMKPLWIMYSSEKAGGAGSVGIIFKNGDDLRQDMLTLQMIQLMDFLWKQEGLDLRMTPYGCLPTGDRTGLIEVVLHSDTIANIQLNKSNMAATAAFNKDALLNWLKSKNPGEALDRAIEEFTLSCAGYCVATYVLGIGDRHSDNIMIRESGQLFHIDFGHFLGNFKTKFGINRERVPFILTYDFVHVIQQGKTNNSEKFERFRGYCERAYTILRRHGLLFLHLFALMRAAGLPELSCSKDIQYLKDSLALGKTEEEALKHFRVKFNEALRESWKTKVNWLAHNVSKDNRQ
Description: (§1) PI3K δ assay: single cell suspension was obtained from the spleen of male Sprague Dawley rat; cells were cultured in RPMI containing heat-inactivated 10% FBS, pre-treated (1 hr., 37 °C, 5% CO2) with vehicle DMSO or PI3K inhibitors, followed by stimulation with AffiniPure F(ab’)2 Fragment Goat Anti-Rat IgM, μ chain specific, Jackson Immunoresearch (112–006-075) at 5 μg/mL (EC80 determined in house; 20–22 hrs). Then, cells were washed with FACS buffer (2% FBS, […]) and stained (15 mins, 4 °C) with Fc block (1:100, 550,273, BD bioscience), LIVE/DEAD Fixable Aqua Dead Cell Stain Kit (L34957, Invitrogen, 1:300), CD45R (B220)-PeCy7 (HIS24) (25–0460-82, eBioscience, 1:100), CD3-AF647 (IF4) (201,408, Biolegend, 1:100), CD86-FITC (24F) (200,305, Biolegend, 1:50). Cells were acquired on the Flow Cytometer (BD LSRFortessa™) and analysed using FlowJo 9.9 software (TreeStar). FACS gating strategy: lymphocytes (FSC-A vs SSC-A), doublets exclusion (FSC-W vs FSC-H), live cells (Aqua-530-), B cell identification CD3- B220 + % of positive B cells for CD86. IC50 values were determined in Graph Pad through a nonlinear fit on log transform data: log inhibitor vs response, variable slope, 4 parameters. Fraction unbound in in vitro assay is calculated using the following equation: fu^′=DF·fup/1+DF-1·fup where fu’ is the fraction unbound in assay media; fup is the experimentally determined fraction unbound in undiluted human plasma; DF is the dilution factor (fold difference between protein concentration in human plasma and assay media, using an albumin concentration of 600 μM (40 g/L) for undiluted plasma) Table 2.

[1] = Rat plasma protein binding, blood to plasma ratio, unbound fraction in whole blood; format: in vitro ADME; settings: for fraction unbound: rat
Description: Next, cells were stained with Fc block (550,273, BD bioscience, 1:100; 20 mins, RT), CD45R-B220-PeCy7 (HIS24) (25–0460-82, eBioscience, 1:100), CD43-PE (W3/13) (202,812, Biolegend, 1:100), HIS48-FITC (11–0570-82, eBioscience, 1:100), CD11b-APC (562,102, BD Bioscience, 1:100). Cells were lysed and fixed with BD FACS lysing solution (349,202, BD Biosciences; 45 mins, RT) before FACS acquisition (BD LSRFortessa™). Data were analysed using FlowJo 9.9 software (TreeStar). FACS gating strategy: lymphocytes (FSC-A vs SSC-A), doublets exclusion (FSC-W vs FSC-H), neutrophil identification B220-, HIS48hi, CD43hi, SSC-Ahi, geom. MFI for CD11b on neutrophils. IC50 values were determined in Graph Pad through a nonlinear fit on log transform data: log inhibitor vs response, variable slope, 4 parameters. Fraction unbound in diluted whole blood is calculated using the following equation: fu^′=DF·fub/1+DF-1·fub where fu’ is the fraction unbound in diluted whole blood; fub is the fraction unbound in undiluted whole blood; DF is the dilution factor. Fraction unbound in 100% whole blood (fub) is calculated as fup/BP, where fup is the experimentally determined fraction unbound in undiluted plasma and BP is the experimentally determined blood to plasma partition ratio of drug Table 1.

[2] = Human plasma protein binding and unbound fraction in assay media; format: in vitro ADME
Description: as §1

[3] = tested on: JAK/STAT and NF-κB pathways; test: Rat model of allergic asthma: lung pSTAT3, pSTAT5a,b and NF-κB p65, pathway specificity; format: in vivo, Brown Norway rat; settings: i.t. 1 hr before OVA challenge; lung 2 hrs after challenge

- IC50 (rat PI3Kδ; CD86 expression on B cells, read-out: rat δ total IC50): 10.5 ± 6.2 nM
- IC50 (rat PI3Kδ; corrected for protein binding in the assay, read-out: rat δ free IC50): 0.63 ± 0.37 nM
- Rat B/P ratio ([1]; blood to plasma partition ratio): 0.82
- Rat fub ([1]; fraction unbound in 100% whole blood, fup/BP): 0.018
- fraction unbound ([1]; diluted whole blood (PI3K γ assay), fraction unbound in diluted whole blood, DF 1.05 (γ assay), read-out: fu’): 0.0192
- fraction unbound ([1]; plasma, rat plasma, fraction unbound, read-out: Rat ppb (fu, %)): 0.015
- fraction unbound ([1]; plasma, undiluted rat plasma, fraction, read-out: Rat plasma fu): 0.015
- fraction unbound ([2]; human plasma, fraction unbound, read-out: Human ppb (fu, %)): 0.0063
- fraction unbound ([2]; human, assay media (PI3K δ assay), fraction unbound in assay media (δ assay, RPMI 10% FBS), read-out: Fu’): 0.06
SMILES: Cc1nc(Nc2cccc(N3CCCC3=O)n2)sc1-c1cc2c(c(S(C)(=O)=O)c1)C(=O)N([C@@H](C)C1CC1)C2 [AZD8154]
- JAK/STAT pathway (pSTAT3, pSTAT5a,b) in lung tissue [3]: minimal impact
- NF-κB pathway (NF-κB p65) in lung nuclear extract [3]: minimal impact
